# In patent publication US9695155B2, “Herbicidal substituted pyrimidinyloxy benzene compounds” (E. I. DU PONT DE NEMOURS AND COMPANY, priority 2013, dated 2017):
# Columns and labels:
# rice = test: Test C flooded paddy test; format: in vivo, Oryza sativa; conditions: Flood, scale 0 to 100 (0 no effect, 100 complete control), 13 to 15 days
# Procedure, shortened: (§1)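 Flooded 3 cm over soil; compound into paddy water; depth kept constant. Greenhouse 13–15 d.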
# sedge, umbrella = test: Test C flooded paddy test; format: in vivo, Cyperus difformis; conditions: Flood, scale 0 to 100 (0 no effect, 100 complete control), 13 to 15 days
# Procedure, shortened: as §1
# barnyardgrass = test: Test C flooded paddy test; format: in vivo, Echinochloa crus-galli; conditions: Flood, scale 0 to 100 (0 no effect, 100 complete control), 13 to 15 days
# Procedure, shortened: as §1
# soybean = test: Test E preemergence; format: in vivo, Glycine max; conditions: for Soybean plant response rating: scale 0 to 100 (0 no effect, 100 complete control); for Plant response rating, Soybean: scale 0 to 100, 0 no effect, 100 complete control
# Procedure, shortened: (§2)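 Response was scored visually on a 0-100 scale (100 = complete control) versus controls after 14 to 21 days in the greenhouse. Test chemicals, formulated with surfactant in a non-phytotoxic solvent mixture, had been applied preemergence to seeds in silt loam soil or postemergence to 1- to 4-leaf plants in potting medium.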
# velvetleaf = test: Test E preemergence; format: in vivo, Abutilon theophrasti; conditions: for Velvetleaf plant response rating: scale 0 to 100 (0 no effect, 100 complete control); for Plant response rating, Velvetleaf: scale 0 to 100, 0 no effect, 100 complete control
# Procedure, shortened: as §2
# wild poinsettia = test: Test E preemergence; format: in vivo, Euphorbia heterophylla; conditions: for Poinsettia, Wild plant response rating: scale 0 to 100 (0 no effect, 100 complete control); for Plant response rating, Poinsettia, Wild: scale 0 to 100, 0 no effect, 100 complete control
# Procedure, shortened: as §2
# palmer pigweed = test: Test E preemergence; format: in vivo, Amaranthus palmeri; conditions: for Pigweed, Palmer plant response rating: scale 0 to 100 (0 no effect, 100 complete control); for Plant response rating, Pigweed, Palmer: scale 0 to 100, 0 no effect, 100 complete control
# Procedure, shortened: as §2
# waterhemp = test: Test E preemergence; format: in vivo, Amaranthus rudis; conditions: for Waterhemp plant response rating: scale 0 to 100 (0 no effect, 100 complete control); for Plant response rating, Waterhemp: scale 0 to 100, 0 no effect, 100 complete control
# Procedure, shortened: as §2
# Brazilian crabgrass [1] = test: Test E preemergence; format: in vivo, Digitaria horizontalis; conditions: for Crabgrass, Brazil plant response rating: scale 0 to 100 (0 no effect, 100 complete control); for Plant response rating, Crabgrass, Brazil: scale 0 to 100, 0 no effect, 100 complete control
# Procedure, shortened: as §2
# giant foxtail = test: Test E preemergence; format: in vivo, Setaria faberii; conditions: for Foxtail, Giant plant response rating: scale 0 to 100 (0 no effect, 100 complete control); for Plant response rating, Foxtail, Giant: scale 0 to 100, 0 no effect, 100 complete control
# Procedure, shortened: as §2
# ragweed = test: Test E preemergence; format: in vivo, Ambrosia elatior; conditions: for Ragweed plant response rating: scale 0 to 100 (0 no effect, 100 complete control); for Plant response rating, Ragweed: scale 0 to 100, 0 no effect, 100 complete control
# Procedure, shortened: as §2
# sandbur = test: Test E preemergence; format: in vivo, Cenchrus echinatus; conditions: for Sandbur plant response rating: scale 0 to 100 (0 no effect, 100 complete control); for Plant response rating, Sandbur: scale 0 to 100, 0 no effect, 100 complete control
# Procedure, shortened: as §2
# Italian ryegrass [2] = test: Test E preemergence; format: in vivo, Lolium multiflorum; conditions: for Ryegrass, Italian plant response rating: scale 0 to 100 (0 no effect, 100 complete control); for Plant response rating, Ryegrass, Italian: scale 0 to 100, 0 no effect, 100 complete control
# Procedure, shortened: as §2
# dayflower = test: Test E preemergence; format: in vivo, Commelina virginica; conditions: for Dayflower, VA plant response rating: scale 0 to 100 (0 no effect, 100 complete control); for Plant response rating, Dayflower, VA: scale 0 to 100, 0 no effect, 100 complete control
# Procedure, shortened: as §2
# morningglory = test: Test E preemergence; format: in vivo, Ipomoea coccinea; conditions: for Morningglory plant response rating: scale 0 to 100 (0 no effect, 100 complete control); for Plant response rating, Morningglory: scale 0 to 100, 0 no effect, 100 complete control
# Procedure, shortened: as §2
# Brazilian crabgrass [3] = test: Test E postemergence; format: in vivo, Digitaria horizontalis
# Procedure, shortened: as §2
# Italian ryegrass [4] = test: Test E postemergence; format: in vivo, Lolium multiflorum
# Procedure, shortened: as §2
# field bindweed = test: Test E postemergence; format: in vivo, Convolvulus arvensis
# Procedure, shortened: as §2
# [5] = Postemergence, 31 g ai/ha, scale 0 to 100
# [6] = Postemergence, 62 g ai/ha, scale 0 to 100
# [7] = Postemergence, 125 g ai/ha, scale 0 to 100
# [8] = Postemergence, 250 g ai/ha, scale 0 to 100
# [9] = postemergence, 16 g ai/ha, scale 0 to 100, 0 no effect, 100 complete control
structure (smiles),measurement,setting,value
N#Cc1cnn(-c2c(C#N)cccc2Oc2ncc(Cl)cn2)c1 [Compound 200],"Plant response rating, Rice",rice; 31 g ai/ha,0
same,"Plant response rating, Rice",rice; 62 g ai/ha,0
same,"Plant response rating, Rice",rice; 125 g ai/ha,0
same,"Plant response rating, Rice",rice; 250 g ai/ha,0
same,"Plant response rating, Sedge, Umbrella","sedge, umbrella; 31 g ai/ha",0
same,"Plant response rating, Sedge, Umbrella","sedge, umbrella; 62 g ai/ha",80
same,"Plant response rating, Sedge, Umbrella","sedge, umbrella; 125 g ai/ha",90
same,"Plant response rating, Sedge, Umbrella","sedge, umbrella; 250 g ai/ha",90
same,"Plant response rating, Barnyardgrass",barnyardgrass; 31 g ai/ha,0
same,"Plant response rating, Barnyardgrass",barnyardgrass; 62 g ai/ha,0
same,"Plant response rating, Barnyardgrass",barnyardgrass; 125 g ai/ha,0
same,"Plant response rating, Barnyardgrass",barnyardgrass; 250 g ai/ha,25
same,Soybean plant response rating,soybean; 31 g ai/ha,25
same,Soybean plant response rating,soybean; 62 g ai/ha,35
same,"Plant response rating, Soybean",soybean; 125 g ai/ha,65
same,"Plant response rating, Soybean",soybean; 250 g ai/ha,90
same,Velvetleaf plant response rating,velvetleaf; 31 g ai/ha,35
same,Velvetleaf plant response rating,velvetleaf; 62 g ai/ha,80
same,"Plant response rating, Velvetleaf",velvetleaf; 125 g ai/ha,100
same,"Plant response rating, Velvetleaf",velvetleaf; 250 g ai/ha,100
same,"Poinsettia, Wild plant response rating",wild poinsettia; 31 g ai/ha,50
same,"Poinsettia, Wild plant response rating",wild poinsettia; 62 g ai/ha,50
same,"Plant response rating, Poinsettia, Wild",wild poinsettia; 125 g ai/ha,90
same,"Plant response rating, Poinsettia, Wild",wild poinsettia; 250 g ai/ha,95
same,"Pigweed, Palmer plant response rating",palmer pigweed; 31 g ai/ha,40
same,"Pigweed, Palmer plant response rating",palmer pigweed; 62 g ai/ha,100
same,"Plant response rating, Pigweed, Palmer",palmer pigweed; 125 g ai/ha,100
same,"Plant response rating, Pigweed, Palmer",palmer pigweed; 250 g ai/ha,100
same,Waterhemp plant response rating,waterhemp; 31 g ai/ha,100
same,Waterhemp plant response rating,waterhemp; 62 g ai/ha,100
same,"Plant response rating, Waterhemp",waterhemp; 125 g ai/ha,100
same,"Plant response rating, Waterhemp",waterhemp; 250 g ai/ha,100
same,"Crabgrass, Brazil plant response rating",Brazilian crabgrass [1]; 16 g ai/ha,30
same,"Crabgrass, Brazil plant response rating",Brazilian crabgrass [1]; 31 g ai/ha,85
same,"Crabgrass, Brazil plant response rating",Brazilian crabgrass [1]; 62 g ai/ha,100
same,"Plant response rating, Crabgrass, Brazil",Brazilian crabgrass [1]; 125 g ai/ha,100
same,"Plant response rating, Crabgrass, Brazil",Brazilian crabgrass [1]; 250 g ai/ha,100
same,"Foxtail, Giant plant response rating",giant foxtail; 16 g ai/ha,0
same,"Foxtail, Giant plant response rating",giant foxtail; 31 g ai/ha,0
same,"Foxtail, Giant plant response rating",giant foxtail; 62 g ai/ha,0
same,"Plant response rating, Foxtail, Giant",giant foxtail; 125 g ai/ha,25
same,"Plant response rating, Foxtail, Giant",giant foxtail; 250 g ai/ha,70
same,Ragweed plant response rating,ragweed; 31 g ai/ha,0
same,Ragweed plant response rating,ragweed; 62 g ai/ha,80
same,"Plant response rating, Ragweed",ragweed; 125 g ai/ha,80
same,"Plant response rating, Ragweed",ragweed; 250 g ai/ha,95
same,Sandbur plant response rating,sandbur; 31 g ai/ha,0
same,Sandbur plant response rating,sandbur; 62 g ai/ha,5
same,"Plant response rating, Sandbur",sandbur; 125 g ai/ha,40
same,"Plant response rating, Sandbur",sandbur; 250 g ai/ha,70
same,"Ryegrass, Italian plant response rating",Italian ryegrass [2]; 31 g ai/ha,0
same,"Ryegrass, Italian plant response rating",Italian ryegrass [2]; 62 g ai/ha,20
same,"Plant response rating, Ryegrass, Italian",Italian ryegrass [2]; 125 g ai/ha,60
same,"Plant response rating, Ryegrass, Italian",Italian ryegrass [2]; 250 g ai/ha,80
same,"Dayflower, VA plant response rating",dayflower; 16 g ai/ha,0
same,"Dayflower, VA plant response rating",dayflower; 31 g ai/ha,35
same,"Dayflower, VA plant response rating",dayflower; 62 g ai/ha,65
same,"Plant response rating, Dayflower, VA",dayflower; 125 g ai/ha,65
same,"Plant response rating, Dayflower, VA",dayflower; 250 g ai/ha,85
same,Morningglory plant response rating,morningglory; 31 g ai/ha,20
same,Morningglory plant response rating,morningglory; 62 g ai/ha,50
same,"Plant response rating, Morningglory",morningglory; 125 g ai/ha,90
same,"Plant response rating, Morningglory",morningglory; 250 g ai/ha,98
same,"Plant response rating, Crabgrass, Brazil",Brazilian crabgrass [3]; [5],15
same,"Plant response rating, Crabgrass, Brazil",Brazilian crabgrass [3]; [6],30
same,"Plant response rating, Crabgrass, Brazil",Brazilian crabgrass [3]; [7],50
same,"Plant response rating, Crabgrass, Brazil",Brazilian crabgrass [3]; [8],60
same,"Plant response rating, Crabgrass, Brazil",Brazilian crabgrass [3]; [9],10
same,"Plant response rating, Ryegrass, Italian",Italian ryegrass [4]; [5],0
same,"Plant response rating, Ryegrass, Italian",Italian ryegrass [4]; [6],0
same,"Plant response rating, Ryegrass, Italian",Italian ryegrass [4]; [7],0
same,"Plant response rating, Ryegrass, Italian",Italian ryegrass [4]; [8],0
same,"Plant response rating, Ryegrass, Italian",Italian ryegrass [4]; [9],0
same,"Plant response rating, Field Bindweed",field bindweed; [5],70
same,"Plant response rating, Field Bindweed",field bindweed; [6],90
same,"Plant response rating, Field Bindweed",field bindweed; [7],95
same,"Plant response rating, Field Bindweed",field bindweed; [8],95
same,"Plant response rating, Field Bindweed",field bindweed; [9],70
